Our source for the Activity, EC50 and IC50 values is ChEMBL document CHEMBL1208717, “Antimalarial 3-arylamino-6-benzylamino-1,2,4,5-tetrazines” (Bioorg Med Chem Lett, 2010).

Values joined by “and” are separate entries in the source; they are usually repeats but may differ in a detail not shown here. Identical values can stand only once.

Series [1] in a line: Cytotoxicity against human HEK cells at 29 uM. Format: cell-based. The note with it: hek293, 29 µM.
Series [2] has as its system Leishmania infantum. As to the kind of experiment: Antileishmanial activity against amastigote stage of Leishmania infantum. Format: functional, organism-based.
Series [3] concerns L6. The series is described as follows: Cytotoxicity against rat L6 cells. It is filed as cell-based.
Series [4] relates to Trypanosoma cruzi. The series is described as follows: Antitrypanosomal activity against amastigote stage of Trypanosoma cruzi Tulahuen C2C4. It is filed as functional, organism-based. The note with it: Tulahaen C2C4.
Series [5] has as its system Trypanosoma brucei rhodesiense. The series is described as follows: Antitrypanosomal activity against bloodstream form of Trypanosoma brucei rhodesiense STIB 900. It is filed as functional, organism-based.
The test system of series [6] is Plasmodium falciparum. The series is described as follows: Antimalarial activity against erythrocytic stage of chloroquine-resistant Plasmodium falciparum Dd2. Format: functional, organism-based.
Series [7] deals with Plasmodium falciparum. The series is described as follows: Antimalarial activity against erythrocytic stage of Plasmodium falciparum 3D7. Format: functional, organism-based.
The nature of series [8]: Cytotoxicity against human HEK cells at 115 uM. Format: cell-based. The settings on record: hek293, 115 µM.
The test system of series [9] is Plasmodium falciparum. As to the kind of experiment: Antimalarial activity against erythrocytic stage of Plasmodium falciparum 3D7 at 115 uM. It is filed as functional, organism-based.
Series [10] deals with Plasmodium falciparum. The series is described as follows: Antimalarial activity against erythrocytic stage of chloroquine-resistant Plasmodium falciparum Dd2 at 115 uM. Format: functional.
A short description of series [11]: Cytotoxicity against human HEK cells at 38 uM. Format: cell-based. The settings on record: hek293, 38 µM.
The test system of series [12] is Plasmodium falciparum. As to the kind of experiment: Antimalarial activity against erythrocytic stage of Plasmodium falciparum 3D7 at 38 uM. It is filed as functional, organism-based.
Series [13] is described as follows: Cytotoxicity against human HEK cells. Format: cell-based. The note with it: HEK293.
[14] abbreviates: Plasmodium falciparum, Dd2, read-out: EC50.

In the case of `Clc1ccc(Nc2nnc(NCc3ccccc3)nn2)cc1`, the Activity in series [1] came to 58%. Further, the concentration for a half-maximal effect (EC50) in [2] was 16 µM; in series [4], 15 µM; in [5] it was over 32 µM; in series [6] (setting [14]) it was 1.1 µM; in [7], 0.44 µM and 1.1 µM. The same compound returned a concentration for half-maximal inhibition (IC50) in series [3] of over 32 µM.
`Clc1ccc(Nc2nnc(NCCc3ccccc3)nn2)cc1`: the Activity entry is given as “Non-toxic” in [8], 85% in series [9] and 88% in series [10].
As to `CC(Nc1nnc(Nc2ccc(Cl)cc2)nn1)c1ccccc1` (configuration not stated), in series [11], the Activity entry is given as “Non-toxic”. In [12], the half-maximal effective concentration (EC50) result is recorded as “Not Active”.
Regarding `CNc1nnc(NCc2ccccc2)nn1`, the Activity result in [8] was “Non-toxic”. Further, the 50% effective concentration (EC50) entry in series [9] is on record as “Not Active”.
As to `CCCCNc1nnc(NCc2ccccc2)nn1`, the Activity result in series [8] is “Non-toxic”. Besides, the half-maximal effective concentration (EC50) entry in series [9] is “Not Active”.
Taken in the same sequence, the figures for `c1ccc(CNc2nnc(Nc3ccccc3)nn2)cc1` were “Non-toxic” and “Not Active”.
`CN(c1ccc(Cl)cc1)c1nnc(NCc2ccccc2)nn1` returned a half-maximal inhibitory concentration (IC50) in [13] of 12 µM. The EC50 worked out at 3.5 µM in series [6] (setting [14]) and 2.4 µM in series [7] (Plasmodium falciparum, 3D7).
The like results for `CN(C)CCN(c1ccc(Cl)cc1)c1nnc(NCc2ccccc2)nn1` were, in that order, 38 µM, 20 µM and 13 µM.
For `CN(C)CCN(Cc1ccccc1)c1nnc(N(CCN(C)C)c2ccc(Cl)cc2)nn1`, the Activity result in series [8] was “Non-toxic”. In series [9], the EC50 result is given as “Not Active”.
Regarding `CN(C)CCOc1cccc(Nc2nnc(NCc3ccccc3)nn2)c1`, the Activity in series [11] stood at 52%. Further, the EC50 worked out at 13 µM in [6] (setting [14]) and 15 µM in series [7] (Plasmodium falciparum, 3D7).
In turn, `CN(C)CCOc1cccc(CNc2nnc(Nc3ccc(Cl)cc3)nn2)c1` came in with an IC50 in [13] of 21 µM. The concentration giving a half-maximal response (EC50) in series [6] was found to be 6 µM; in series [7] (Plasmodium falciparum, 3D7), 5 µM.
Regarding `COc1nncc(-c2cnnc(SC)n2)n1`, the half-maximal effective concentration (EC50) came to 8.6 µM in [2]; 16 µM in [4]; 5.7 µM in [5]; 0.18 µM in series [7] (Plasmodium falciparum, 3D7). The compound also registered an IC50 in [3] of 33 µM.

What is called EC50 is the concentration at which the effect is half-maximal. In general, IC50 refers to the concentration at which inhibition is half-maximal. A low value points to greater potency.
